Assay results: ChEMBL document CHEMBL1145498, “A systematic interaction map of validated kinase inhibitors with Ser/Thr kinases” (Proc Natl Acad Sci U S A, 2007)

How the values were obtained:
[1] = target: Calcium/calmodulin-dependent protein kinase type 1G (Homo sapiens) (UniProt Q96NX5)
[2] = target: Calcium/calmodulin-dependent protein kinase kinase 2 (Homo sapiens, UniProt Q96RR4)
[3] = target: Cyclin-dependent kinase 6 (Homo sapiens) (UniProt Q00534)
[4] = target: Serine/threonine-protein kinase Chk2 (Homo sapiens, UniProt O96017)
[5] = target: Dual specificity protein kinase CLK2 (Homo sapiens) (UniProt P49760)
Sequence of Dual specificity protein kinase CLK2 (Homo sapiens) (P49760 whole entry, looked up): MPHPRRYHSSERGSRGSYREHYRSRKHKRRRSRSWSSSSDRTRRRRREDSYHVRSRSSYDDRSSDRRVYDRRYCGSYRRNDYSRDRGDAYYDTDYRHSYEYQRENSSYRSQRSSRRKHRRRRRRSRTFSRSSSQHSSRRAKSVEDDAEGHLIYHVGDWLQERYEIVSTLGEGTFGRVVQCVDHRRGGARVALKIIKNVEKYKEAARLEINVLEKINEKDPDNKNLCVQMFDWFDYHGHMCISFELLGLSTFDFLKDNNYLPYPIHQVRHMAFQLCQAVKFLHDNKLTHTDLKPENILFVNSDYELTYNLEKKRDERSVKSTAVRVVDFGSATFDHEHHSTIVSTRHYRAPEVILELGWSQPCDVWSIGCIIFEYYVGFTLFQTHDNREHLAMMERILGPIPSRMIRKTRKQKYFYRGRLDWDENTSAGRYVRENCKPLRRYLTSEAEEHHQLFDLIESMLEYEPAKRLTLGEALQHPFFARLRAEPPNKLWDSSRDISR

[6] = target: Dual specificity protein kinase CLK3 (Homo sapiens) (UniProt P49761)
[7] = target: Casein kinase I isoform gamma-1 (Homo sapiens) (UniProt Q9HCP0)
Sequence of Casein kinase I isoform gamma-1 (Homo sapiens) (Q9HCP0 whole entry, looked up, canonical isoform): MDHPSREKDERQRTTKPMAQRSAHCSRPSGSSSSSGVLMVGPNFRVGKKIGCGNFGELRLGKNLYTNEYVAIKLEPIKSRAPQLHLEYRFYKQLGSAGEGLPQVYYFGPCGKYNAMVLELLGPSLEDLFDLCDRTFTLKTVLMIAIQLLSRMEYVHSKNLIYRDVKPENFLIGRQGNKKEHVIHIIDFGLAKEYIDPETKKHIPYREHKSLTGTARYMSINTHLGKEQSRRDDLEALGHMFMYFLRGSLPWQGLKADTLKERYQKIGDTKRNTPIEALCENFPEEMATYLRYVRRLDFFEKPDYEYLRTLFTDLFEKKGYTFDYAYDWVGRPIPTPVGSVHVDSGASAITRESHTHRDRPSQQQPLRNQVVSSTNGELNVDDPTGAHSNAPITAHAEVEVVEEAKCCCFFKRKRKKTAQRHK

[8] = target: Death-associated protein kinase 3 (Homo sapiens) (UniProt O43293)
Sequence of Death-associated protein kinase 3 (Homo sapiens) (O43293 whole entry, looked up): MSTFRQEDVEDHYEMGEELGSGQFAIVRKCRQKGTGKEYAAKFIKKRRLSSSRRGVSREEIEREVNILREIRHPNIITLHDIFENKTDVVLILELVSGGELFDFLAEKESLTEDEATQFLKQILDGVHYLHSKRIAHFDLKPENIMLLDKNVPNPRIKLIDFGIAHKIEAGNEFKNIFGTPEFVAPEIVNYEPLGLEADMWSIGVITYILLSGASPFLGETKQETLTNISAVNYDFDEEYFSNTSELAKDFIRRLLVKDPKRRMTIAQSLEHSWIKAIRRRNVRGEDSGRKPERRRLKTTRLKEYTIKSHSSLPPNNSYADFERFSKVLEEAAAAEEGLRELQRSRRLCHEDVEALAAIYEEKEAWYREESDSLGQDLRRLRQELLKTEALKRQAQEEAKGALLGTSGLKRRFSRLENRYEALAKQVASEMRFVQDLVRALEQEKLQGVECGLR

[9] = target: Tyrosine-protein kinase JAK1 (Homo sapiens) (UniProt P23458)
[10] = target: Mitogen-activated protein kinase 11 (Homo sapiens, UniProt Q15759)
[11] = target: Mitogen-activated protein kinase 3 (Homo sapiens, UniProt P27361)
Sequence of Mitogen-activated protein kinase 3 (P27361 whole entry): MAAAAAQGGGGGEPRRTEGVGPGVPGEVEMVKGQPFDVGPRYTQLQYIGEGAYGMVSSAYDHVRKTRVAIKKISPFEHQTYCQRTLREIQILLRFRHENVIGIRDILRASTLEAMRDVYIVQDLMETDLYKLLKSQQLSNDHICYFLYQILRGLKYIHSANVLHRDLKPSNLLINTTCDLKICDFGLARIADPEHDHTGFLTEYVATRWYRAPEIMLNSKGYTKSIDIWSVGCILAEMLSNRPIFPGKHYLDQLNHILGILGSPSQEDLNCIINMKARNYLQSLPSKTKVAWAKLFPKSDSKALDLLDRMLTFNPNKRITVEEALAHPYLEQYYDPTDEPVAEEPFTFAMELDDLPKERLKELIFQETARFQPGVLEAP

[12] = target: Serine/threonine-protein kinase Nek6 (Homo sapiens) (UniProt Q9HC98)
[13] = target: Serine/threonine-protein kinase OSR1 (Homo sapiens) (UniProt O95747)
Sequence of Serine/threonine-protein kinase OSR1 (Homo sapiens) (O95747 2-527 limits assumed): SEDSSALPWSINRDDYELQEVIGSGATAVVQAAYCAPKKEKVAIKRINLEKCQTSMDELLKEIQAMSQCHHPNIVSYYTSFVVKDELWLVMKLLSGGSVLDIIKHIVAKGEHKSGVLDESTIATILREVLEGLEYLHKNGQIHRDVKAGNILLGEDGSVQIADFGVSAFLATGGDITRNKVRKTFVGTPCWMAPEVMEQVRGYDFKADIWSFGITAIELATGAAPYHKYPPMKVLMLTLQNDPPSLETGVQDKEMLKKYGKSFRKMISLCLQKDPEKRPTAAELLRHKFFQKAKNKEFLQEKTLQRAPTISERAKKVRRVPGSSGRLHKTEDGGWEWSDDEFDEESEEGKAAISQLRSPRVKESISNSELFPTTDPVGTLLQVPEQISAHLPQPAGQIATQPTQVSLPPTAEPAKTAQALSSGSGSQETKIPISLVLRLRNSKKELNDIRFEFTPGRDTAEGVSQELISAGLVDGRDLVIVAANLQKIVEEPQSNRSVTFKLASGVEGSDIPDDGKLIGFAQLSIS

[14] = target: Serine/threonine-protein kinase pim-2 (Homo sapiens, UniProt Q9P1W9)
Sequence of Serine/threonine-protein kinase pim-2 (Q9P1W9 whole entry, looked up): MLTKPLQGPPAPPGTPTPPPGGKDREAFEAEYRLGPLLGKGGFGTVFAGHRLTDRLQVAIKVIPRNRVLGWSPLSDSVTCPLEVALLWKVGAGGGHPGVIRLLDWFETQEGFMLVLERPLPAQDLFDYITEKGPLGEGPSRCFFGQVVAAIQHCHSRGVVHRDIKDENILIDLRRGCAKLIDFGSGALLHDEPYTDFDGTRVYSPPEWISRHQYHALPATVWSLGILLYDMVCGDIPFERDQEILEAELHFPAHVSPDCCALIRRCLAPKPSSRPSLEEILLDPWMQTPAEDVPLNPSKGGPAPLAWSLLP

[15] = target: Serine/threonine-protein kinase pim-3 (Homo sapiens) (UniProt Q86V86)
[16] = target: T1, Serine/threonine-protein kinase PLK4 (Homo sapiens) (UniProt O00444)
T1 sequence (whole entry): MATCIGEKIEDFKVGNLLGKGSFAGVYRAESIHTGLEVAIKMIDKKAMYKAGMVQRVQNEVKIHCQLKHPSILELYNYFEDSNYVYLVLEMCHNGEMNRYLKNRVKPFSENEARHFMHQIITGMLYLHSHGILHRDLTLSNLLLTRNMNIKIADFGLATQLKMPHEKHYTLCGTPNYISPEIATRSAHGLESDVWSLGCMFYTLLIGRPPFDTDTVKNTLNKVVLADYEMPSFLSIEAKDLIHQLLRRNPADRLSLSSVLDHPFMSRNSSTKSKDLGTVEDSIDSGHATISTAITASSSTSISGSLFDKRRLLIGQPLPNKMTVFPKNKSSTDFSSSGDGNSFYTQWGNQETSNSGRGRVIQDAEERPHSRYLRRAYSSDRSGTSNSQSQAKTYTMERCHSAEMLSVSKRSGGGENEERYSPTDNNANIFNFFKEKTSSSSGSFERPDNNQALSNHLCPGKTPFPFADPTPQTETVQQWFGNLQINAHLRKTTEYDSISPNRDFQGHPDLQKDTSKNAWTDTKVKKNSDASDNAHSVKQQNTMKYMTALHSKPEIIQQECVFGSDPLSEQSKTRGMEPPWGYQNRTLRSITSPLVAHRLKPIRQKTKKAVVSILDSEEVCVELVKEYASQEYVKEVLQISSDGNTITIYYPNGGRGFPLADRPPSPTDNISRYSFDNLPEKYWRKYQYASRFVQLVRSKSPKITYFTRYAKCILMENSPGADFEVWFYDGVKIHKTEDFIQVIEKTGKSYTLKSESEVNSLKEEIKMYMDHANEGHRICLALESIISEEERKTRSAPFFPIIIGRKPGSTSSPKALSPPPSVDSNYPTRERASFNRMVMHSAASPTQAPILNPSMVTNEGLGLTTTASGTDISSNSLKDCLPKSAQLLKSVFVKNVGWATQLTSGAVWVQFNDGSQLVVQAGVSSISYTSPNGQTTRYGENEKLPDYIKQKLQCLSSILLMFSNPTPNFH

[17] = target: cAMP-dependent protein kinase catalytic subunit alpha (Homo sapiens) (UniProt P17612)
[18] = target: STE20-like serine/threonine-protein kinase (Homo sapiens) (UniProt Q9H2G2)
Sequence of STE20-like serine/threonine-protein kinase (Homo sapiens) (Q9H2G2 whole entry, looked up): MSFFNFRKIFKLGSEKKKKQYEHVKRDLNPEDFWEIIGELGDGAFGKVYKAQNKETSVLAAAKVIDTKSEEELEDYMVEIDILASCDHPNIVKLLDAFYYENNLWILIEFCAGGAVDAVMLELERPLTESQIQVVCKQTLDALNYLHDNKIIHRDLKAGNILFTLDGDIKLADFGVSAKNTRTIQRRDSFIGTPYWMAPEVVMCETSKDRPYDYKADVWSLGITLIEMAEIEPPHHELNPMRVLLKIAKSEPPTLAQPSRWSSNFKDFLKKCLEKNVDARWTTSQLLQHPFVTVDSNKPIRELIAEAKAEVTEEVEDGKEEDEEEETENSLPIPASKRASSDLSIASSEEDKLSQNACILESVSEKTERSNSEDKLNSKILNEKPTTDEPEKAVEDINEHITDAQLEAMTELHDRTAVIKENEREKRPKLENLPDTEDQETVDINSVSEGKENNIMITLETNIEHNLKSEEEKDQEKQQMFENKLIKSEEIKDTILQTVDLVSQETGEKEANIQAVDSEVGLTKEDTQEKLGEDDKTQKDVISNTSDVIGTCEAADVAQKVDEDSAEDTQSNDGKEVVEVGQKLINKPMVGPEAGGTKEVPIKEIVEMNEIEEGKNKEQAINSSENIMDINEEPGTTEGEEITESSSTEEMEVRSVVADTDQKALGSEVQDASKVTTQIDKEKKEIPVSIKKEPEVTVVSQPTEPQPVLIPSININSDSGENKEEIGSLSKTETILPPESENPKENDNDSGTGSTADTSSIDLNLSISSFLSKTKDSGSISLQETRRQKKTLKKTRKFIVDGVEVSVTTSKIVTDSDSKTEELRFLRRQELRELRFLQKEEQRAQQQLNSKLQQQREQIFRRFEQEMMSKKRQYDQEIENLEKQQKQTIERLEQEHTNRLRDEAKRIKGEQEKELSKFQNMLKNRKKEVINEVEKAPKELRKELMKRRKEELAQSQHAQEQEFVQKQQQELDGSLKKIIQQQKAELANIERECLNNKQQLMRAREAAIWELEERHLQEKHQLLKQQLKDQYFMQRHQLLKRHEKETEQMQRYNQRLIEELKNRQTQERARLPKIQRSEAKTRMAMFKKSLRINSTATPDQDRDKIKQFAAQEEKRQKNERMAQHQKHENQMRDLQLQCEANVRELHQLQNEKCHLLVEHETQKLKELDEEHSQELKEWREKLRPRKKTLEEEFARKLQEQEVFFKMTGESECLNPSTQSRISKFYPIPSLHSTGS

[19] = target: T2, Lymphokine-activated killer T-cell-originated protein kinase (Homo sapiens) (UniProt Q96KB5)
T2 sequence (whole entry): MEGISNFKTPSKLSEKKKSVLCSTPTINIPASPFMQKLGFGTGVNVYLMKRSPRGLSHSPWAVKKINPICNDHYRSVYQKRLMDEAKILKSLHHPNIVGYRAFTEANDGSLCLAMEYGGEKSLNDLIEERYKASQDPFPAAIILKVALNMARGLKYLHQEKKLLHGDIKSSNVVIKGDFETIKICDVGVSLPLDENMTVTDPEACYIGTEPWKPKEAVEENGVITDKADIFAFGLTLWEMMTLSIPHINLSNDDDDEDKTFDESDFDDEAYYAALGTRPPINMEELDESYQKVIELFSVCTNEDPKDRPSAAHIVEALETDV

[20] = target: T3, Serine/threonine-protein kinase VRK3 (Homo sapiens) (UniProt Q8IV63)
T3 sequence (whole entry): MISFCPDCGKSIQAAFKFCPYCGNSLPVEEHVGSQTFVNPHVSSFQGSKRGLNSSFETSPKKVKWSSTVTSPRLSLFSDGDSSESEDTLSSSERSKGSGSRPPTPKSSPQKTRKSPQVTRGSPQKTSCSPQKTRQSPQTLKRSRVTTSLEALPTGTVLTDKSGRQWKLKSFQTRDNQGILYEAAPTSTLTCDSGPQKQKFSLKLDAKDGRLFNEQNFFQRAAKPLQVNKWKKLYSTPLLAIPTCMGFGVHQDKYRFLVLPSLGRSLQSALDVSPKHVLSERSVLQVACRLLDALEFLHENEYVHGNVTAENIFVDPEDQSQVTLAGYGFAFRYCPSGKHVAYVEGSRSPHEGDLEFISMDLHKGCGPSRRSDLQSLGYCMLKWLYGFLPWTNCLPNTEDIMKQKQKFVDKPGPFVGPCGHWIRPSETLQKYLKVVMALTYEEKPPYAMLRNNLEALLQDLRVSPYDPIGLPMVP

[21] = target: Ribosomal protein S6 kinase alpha-3 (Homo sapiens) (UniProt P51812)

Sequence of Calcium/calmodulin-dependent protein kinase type 1G (Homo sapiens) (Q96NX5 whole entry): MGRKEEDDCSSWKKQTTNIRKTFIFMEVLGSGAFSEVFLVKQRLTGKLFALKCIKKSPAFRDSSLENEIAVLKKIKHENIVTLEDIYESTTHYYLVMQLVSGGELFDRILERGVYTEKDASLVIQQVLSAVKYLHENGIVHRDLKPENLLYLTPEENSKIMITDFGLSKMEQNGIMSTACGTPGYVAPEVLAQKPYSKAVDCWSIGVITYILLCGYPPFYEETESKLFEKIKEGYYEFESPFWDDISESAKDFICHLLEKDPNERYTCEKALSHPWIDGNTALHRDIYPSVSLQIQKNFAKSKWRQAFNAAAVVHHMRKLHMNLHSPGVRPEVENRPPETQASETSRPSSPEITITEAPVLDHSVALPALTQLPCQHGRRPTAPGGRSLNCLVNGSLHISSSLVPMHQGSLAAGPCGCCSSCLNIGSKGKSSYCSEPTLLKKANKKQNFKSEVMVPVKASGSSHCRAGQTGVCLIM
Sequence of Cyclin-dependent kinase 6 (Homo sapiens) (Q00534 whole entry): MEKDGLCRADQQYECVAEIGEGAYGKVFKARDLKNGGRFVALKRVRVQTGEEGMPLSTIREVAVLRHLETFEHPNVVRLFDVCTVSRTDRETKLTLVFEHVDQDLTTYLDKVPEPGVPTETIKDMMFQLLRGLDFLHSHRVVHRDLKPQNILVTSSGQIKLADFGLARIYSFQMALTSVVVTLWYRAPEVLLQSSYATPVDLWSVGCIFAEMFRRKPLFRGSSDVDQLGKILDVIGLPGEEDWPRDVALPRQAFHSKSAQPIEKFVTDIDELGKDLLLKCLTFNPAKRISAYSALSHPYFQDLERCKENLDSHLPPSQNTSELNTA

COc1ccc2c(c1)/C(=C/c1cnc[nH]1)C(=O)N2 [SU-9516]
ΔTm [1]: 0.4 °C | ΔTm [2]: 2.8 °C | ΔTm [3]: 3 °C | ΔTm [4]: 1.6 °C | ΔTm [5]: 3.2 °C | ΔTm [6]: 1.3 °C | ΔTm [7]: 1 °C | ΔTm [8]: 2.7 °C | ΔTm [9]: 8.4 °C | ΔTm [10]: 0.8 °C | ΔTm [11]: 2.6 °C | ΔTm [12]: 0.1 °C | ΔTm [13]: 1.3 °C | ΔTm [14]: 1.7 °C | ΔTm [15]: 2.3 °C | ΔTm [16]: 4.9 °C | ΔTm [17]: 1 °C | ΔTm [18]: 3.3 °C | ΔTm [19]: 0 °C | ΔTm [20]: 0.3 °C

Oc1cc(O)cc(/C=C/c2ccc(O)c(O)c2)c1 [PICEATANNOL]
ΔTm [1]: 0.5 °C | ΔTm [2]: 0.5 °C | ΔTm [3]: 0.3 °C | ΔTm [4]: 1.9 °C | ΔTm [5]: 0.6 °C | ΔTm [6]: 0.7 °C | ΔTm [7]: 0 °C | ΔTm [8]: 4.6 °C | ΔTm [9]: 2 °C | ΔTm [10]: 0.8 °C | ΔTm [11]: 0.2 °C | ΔTm [12]: 0.6 °C | ΔTm [13]: 1.6 °C | ΔTm [14]: 2 °C | ΔTm [15]: 3.5 °C | ΔTm [16]: 1.1 °C | ΔTm [17]: 2.7 °C | ΔTm [18]: 1.6 °C | ΔTm [19]: 0 °C | ΔTm [20]: -0.2 °C

C[S+]([O-])c1ccc(-c2nc(-c3ccc(F)cc3)c(-c3ccncc3)[nH]2)cc1 (stereo not drawn) [SB-203580]
ΔTm [1]: -0.2 °C | ΔTm [2]: 0 °C | ΔTm [3]: -0.1 °C | ΔTm [4]: -0.5 °C | ΔTm [5]: 0.2 °C | ΔTm [6]: -0.1 °C | ΔTm [7]: 0.8 °C | ΔTm [8]: -0.4 °C | ΔTm [9]: 2.3 °C | ΔTm [10]: 9.6 °C | ΔTm [11]: 0.1 °C | ΔTm [12]: 0.2 °C | ΔTm [13]: -0.2 °C | ΔTm [14]: 0 °C | ΔTm [15]: 0 °C | ΔTm [16]: 0.7 °C | ΔTm [17]: 0 °C | ΔTm [21]: -0.2 °C | ΔTm [19]: 0.2 °C | ΔTm [20]: 0 °C

O=C1Cc2c([nH]c3ccc(Br)cc23)-c2ccccc2N1 [KENPAULLONE]
ΔTm [1]: 0.3 °C | ΔTm [2]: 2 °C | ΔTm [3]: 0.7 °C | ΔTm [4]: 6.1 °C | ΔTm [5]: 0.1 °C | ΔTm [6]: 0.8 °C | ΔTm [7]: 0.3 °C | ΔTm [8]: 0.4 °C | ΔTm [9]: 1.7 °C | ΔTm [10]: 0.2 °C | ΔTm [11]: 0.5 °C | ΔTm [12]: 0.4 °C | ΔTm [13]: 1.8 °C | ΔTm [14]: 1.2 °C | ΔTm [15]: 4.6 °C | ΔTm [16]: 7.1 °C | ΔTm [17]: 1 °C | ΔTm [18]: 1.7 °C | ΔTm [19]: -2 °C | ΔTm [20]: -0.2 °C

CCN1/C(=C/C(C)=O)Sc2ccc(OC)cc21
ΔTm [1]: -0.5 °C | ΔTm [2]: 0.4 °C | ΔTm [3]: 0.4 °C | ΔTm [4]: 0.1 °C | ΔTm [5]: 4.1 °C | ΔTm [7]: 2.5 °C | ΔTm [8]: 0.9 °C | ΔTm [9]: -0.4 °C | ΔTm [10]: -0.1 °C | ΔTm [11]: -0.4 °C | ΔTm [12]: -1 °C | ΔTm [13]: 0.1 °C | ΔTm [14]: 3.1 °C | ΔTm [15]: 0.2 °C | ΔTm [16]: -0.2 °C | ΔTm [17]: -0.5 °C | ΔTm [21]: -0.6 °C | ΔTm [18]: 0.7 °C | ΔTm [19]: 1.1 °C | ΔTm [20]: 0.1 °C

NCCNc1ncc(C(N)=O)c(Nc2cccc(C(F)(F)F)c2)n1
ΔTm [1]: 5.7 °C | ΔTm [2]: 0.6 °C | ΔTm [3]: 1.1 °C | ΔTm [4]: 6.6 °C | ΔTm [5]: 1.6 °C | ΔTm [6]: 1 °C | ΔTm [7]: 1 °C | ΔTm [8]: 3.2 °C | ΔTm [9]: 1.4 °C | ΔTm [10]: 2 °C | ΔTm [11]: 0.9 °C | ΔTm [12]: 2 °C | ΔTm [13]: 5.4 °C | ΔTm [14]: 0.7 °C | ΔTm [15]: 1.1 °C | ΔTm [16]: 0.3 °C | ΔTm [17]: 2.3 °C | ΔTm [21]: 2.6 °C | ΔTm [18]: 0.1 °C | ΔTm [19]: 0.5 °C

Cc1[nH]c(/C=C2\C(=O)Nc3ccc(S(=O)(=O)N(C)c4cccc(Cl)c4)cc32)c(C)c1C(=O)N1CCN(C)CC1
ΔTm [1]: 1.7 °C | ΔTm [2]: 1.2 °C | ΔTm [3]: -0.4 °C | ΔTm [4]: 2.9 °C | ΔTm [5]: 5.9 °C | ΔTm [6]: 3.7 °C | ΔTm [7]: 0.6 °C | ΔTm [8]: 2.6 °C | ΔTm [9]: 3.4 °C | ΔTm [10]: 0.1 °C | ΔTm [11]: 0.1 °C | ΔTm [12]: 0.4 °C | ΔTm [13]: 1.6 °C | ΔTm [14]: 1 °C | ΔTm [15]: 9.7 °C | ΔTm [16]: 0.8 °C | ΔTm [17]: 3.1 °C | ΔTm [21]: 11.3 °C | ΔTm [18]: 2.4 °C | ΔTm [19]: 0.1 °C

O=C1Nc2ccccc2/C1=C\c1ccc[nH]1
ΔTm [1]: 1.9 °C | ΔTm [2]: 4.7 °C | ΔTm [3]: 2.6 °C | ΔTm [4]: 4.1 °C | ΔTm [5]: 2.1 °C | ΔTm [6]: 0.5 °C | ΔTm [7]: 1.4 °C | ΔTm [8]: -0.2 °C | ΔTm [9]: 8.5 °C | ΔTm [10]: 0.3 °C | ΔTm [11]: 0.3 °C | ΔTm [12]: 0 °C | ΔTm [13]: 2.7 °C | ΔTm [14]: 0.8 °C | ΔTm [15]: 2.1 °C | ΔTm [16]: 6 °C | ΔTm [17]: 1.7 °C | ΔTm [18]: 3.1 °C | ΔTm [19]: -0.5 °C | ΔTm [20]: 0.1 °C

CC[C@H](CO)Nc1nc(NCc2ccccc2)c2ncn(C(C)C)c2n1 [SELICICLIB]
ΔTm [1]: 0 °C | ΔTm [2]: 0.3 °C | ΔTm [3]: 0.2 °C | ΔTm [4]: 0 °C | ΔTm [5]: 2.3 °C | ΔTm [6]: 0.8 °C | ΔTm [9]: 0.1 °C | ΔTm [10]: 1 °C | ΔTm [11]: 0.4 °C | ΔTm [13]: 1 °C | ΔTm [14]: 0.3 °C | ΔTm [15]: 0.5 °C | ΔTm [16]: 0.3 °C | ΔTm [17]: 0.2 °C | ΔTm [21]: 1.4 °C | ΔTm [18]: 0.2 °C | ΔTm [19]: 0.8 °C | ΔTm [20]: 0.6 °C

COc1cc2c(cc1OC)-c1n[nH]c(Nc3cccc(F)c3)c1C2
ΔTm [1]: 1.6 °C | ΔTm [2]: 1.6 °C | ΔTm [3]: 1.7 °C | ΔTm [4]: -0.1 °C | ΔTm [5]: 1.1 °C | ΔTm [6]: 0.4 °C | ΔTm [7]: 0.7 °C | ΔTm [8]: 0.2 °C | ΔTm [9]: 0.4 °C | ΔTm [10]: 0.1 °C | ΔTm [11]: 0.6 °C | ΔTm [12]: 0.1 °C | ΔTm [13]: 0.6 °C | ΔTm [14]: 0.2 °C | ΔTm [15]: 2.6 °C | ΔTm [16]: 1.5 °C | ΔTm [17]: 0.9 °C | ΔTm [21]: 2.8 °C | ΔTm [18]: 2.1 °C | ΔTm [19]: 0.2 °C
